From patent US9650365B2 (UNIVERSITY OF CONNECTICUT, priority 2014, dated 2017) come the findings set out here.

Where two headings read alike, the source gives them in different places.

One assay deals with HUVEC. The experiment in a line: HUVEC proliferation (MTS). The format is cell-based, human. The text has this:
In vivo angiogenesis is dependent on endothelial cell proliferation; therefore, the inhibition of HUVEC proliferation is commonly utilized as an early stage in vitro model of anti-angiogenic activity. […] Under normal conditions, HUVECs plated and grown on Matrigel migrate towards each other, align, and form tubes that resemble in vivo capillary beds. This assay is generally considered a more robust model of angiogenesis as it requires several aspects of proper vessel formation, including adhesion, migration, and tube formation.
HUVEC Cell Viability and Proliferation. HUVEC cell viability and proliferation will be assessed by measuring cellular metabolic activity using MTT (viability) or MTS (proliferation) according to the manufacturer's instructions. HUVECs (3000 cells/well) are seeded in a 96-well plate and allowed to attach overnight. […] For viability, the final value is a corrected optical density (570 nm-690 nm). All viability and GI50 values are from a minimum of three separate experiments performed in triplicate.
HUVEC Cell Viability and Proliferation. HUVEC cell proliferation was assessed by measuring cellular metabolic activity using standard MTS/PMS protocols according to manufacturer's instructions. Briefly, HUVECs (3,000 cells/well) were seeded in a 96-well plate and allowed to attach overnight. Cells were treated with varying concentrations of drug as indicated and proliferation was assessed after 72 h with MTS.

Assay [1] has as its system Hh signaling (Gli1 mRNA) in C3H10T1/2 cells. In words: Down-regulation of endogenous Gli1 mRNA in Hh-dependent C3H10T1/2 cells. The format is cell-based, mouse. The conditions noted are these: for mrna remaining at 1 µM / IC50: Mus musculus; for mrna remaining at 1 µM: read-out: % Gli expression (1 μM). The protocol: To determine whether the triazole functionality was required for inhibition of Hh signaling, the ability of Analogue 1 to down-regulate the well-characterized Hh pathway target gene Gli1 in the Hh-dependent C3H10T1/2 cell line was determined. In this cellular model, activation of the pathway with exogenous recombinant Hh ligand results in a characteristic up-regulation of Gli1 mRNA, while concomitant administration of a pathway inhibitor reduces Gli1 expression.
(§1) General Information. Protocols for general cell culture, qPCR and Hh inhibition in C3H10T1/2 and ASZ cells are as previously described.^28 Protocols for the initiation and growth of Math1-Cre-ER; Ptc^fl/fl medulloblastoma tumors, isolation and in vitro culture of MERP MB cells, as wells as the anti-proliferation and qPCR studies performed in these cells were as previously described.^a Sonic Hedgehog (C25II) recombinant mouse protein was purchased from Life Technologies. aData was analyzed using GraphPad Prism 5 and reported values represent mean±SEM for at least two separate experiments performed in triplicate.
(§2) In this well-studied model system for evaluating small molecule inhibition of Hh signaling, addition of an exogenous Hh agonist (recombinant Hh ligand or small molecule) results in a characteristic increase in Gli1 mRNA expression. Concomitant incubation with a pathway inhibitor reduces Gli1 expression. Analogues that reduced Gli1 mRNA levels below 20% in this assay were subsequently evaluated for their ability to reduce Gli1 mRNA expression levels in a concentration-dependent fashion in these cells and the Hh-dependent murine BCC cell line ASZ. In addition, several compounds were evaluated for their anti-proliferative effects in primary Hh-dependent medulloblastoma cells isolated from conditional patched knockout (Math1-Cre-ER; Ptc^fl/fl, MERP) mice. […] Finally, each of these analogues was evaluated for its ability to inhibit proliferation in human umbilical vein […] cells (HUVECs). In vivo angiogenesis is dependent on endothelial cell proliferation; therefore, the inhibition of HUVEC proliferation is commonly utilized as an early stage in vitro model of anti-angiogenic activity.

Assay [2] concerns Hh signaling (Gli1 mRNA) in ASZ cells. In words: Down-regulation of endogenous Gli1 mRNA in ASZ cells. The assay is classed as cell-based, murine. The conditions noted are these: Mus musculus. The protocol:
as §1, §2

Where [3] appears, read: Homo sapiens, HUVEC, 72 h, read-out: GI50 (μM) HUVEC.
Where [4] appears, read: C3H 10T1/2, 1 μM, 24 hr incubation, relative to recombinant Hh ligand control (100%).
The mark [5] stands for this setting: C3H 10T1/2, read-out: IC50 (μM) Gli1-C3Hs.

As to “1-(sec-butyl)-4-(4-(4-(4-((2-(2,4-dichlorophenyl)-2-methyl-1,3-dioxolan-4-yl)methoxy)phenyl)piperazin-1-yl)phenyl)-1H-1,2,4-triazol-5(4H)-one [Compound 2a]”, in the assay with HUVEC (read-out: GI50 HUVEC proliferation), the GI50 was determined as 0.49 µM.

`CCC(C)n1ncn(-c2ccc(N3CCN(c4ccc(OCC5COC(Cn6cncn6)(c6ccccc6)O5)cc4)CC3)cc2)c1=O` (stereo not drawn) [Compound 3a, 4-(4-(4-(4-((2-((1H-1,2,4-triazol-1-yl)methyl)-2-phenyl-1,3-dioxolan-4-yl)methoxy)phenyl)piperazin-1-yl)phenyl)-1-(sec-butyl)-1H-1,2,4-triazol-5(4H)-one]: in the assay on HUVEC (setting [3]), the GI50 worked out at 8.3 ± 0.7 µM. The mrna remaining at 1 µM in assay [1] (setting [4]) stood at 13.1 ± 1.2%. Besides, the IC50 in assay [1] (C3H 10T1/2, 24 hr incubation, read-out: IC50 (μM) C3H10T1/2) turned out to be 0.42 ± 0.2 µM; in assay [2] (48 hr incubation, read-out: IC50 (μM) ASZ) it was 0.45 ± 0.06 µM.

Regarding `CCC(C)n1ncn(-c2ccc(N3CCN(c4ccc(OCC5COC(C)(Cn6cncn6)O5)cc4)CC3)cc2)c1=O` (stereo not drawn) [Compound 4a, 4-(4-(4-(4-((2-((1H-1,2,4-triazol-1-yl)methyl)-2-methyl-1,3-dioxolan-4-yl)methoxy)phenyl)piperazin-1-yl)phenyl)-2-(sec-butyl)-2,4-dihydro-3H-1,2,4-triazol-3-one], in the assay with HUVEC (setting [3]), the GI50 is 18.4 ± 4.5 µM. Also, in assay [1] (setting [4]), the mrna remaining at 1 µM was 61.4 ± 3.5%. As for `CCC(C)n1ncn(-c2ccc(N3CCN(c4ccc(OCC5COC(C)(C)O5)cc4)CC3)cc2)c1=O` (stereo not drawn) [Compound 5a, 1-(sec-butyl)-4-(4-(4-(4-((2,2-dimethyl-1,3-dioxolan-4-yl)methoxy)phenyl)piperazin-1-yl)phenyl)-1H-1,2,4-triazol-5(4H)-one], the GI50 in the assay on HUVEC (setting [3]) was over 100 µM. Further, in assay [1] (setting [4]), the mrna remaining at 1 µM came to 71.4 ± 5.5%. For `CCCn1ncn(-c2ccc(N3CCN(c4ccc(OCC5COC(Cn6cncn6)(c6ccc(Cl)cc6Cl)O5)cc4)CC3)cc2)c1=O` (stereo not drawn) [Compound 8a, 4-(4-(4-(4-((2-((1H-1,2,4-triazol-1-yl)methyl)-2-(2,4-dichlorophenyl)-1,3-dioxolan-4-yl)methoxy)phenyl)piperazin-1-yl)phenyl)-1-propyl-1H-1,2,4-triazol-5(4H)-one], in the assay on HUVEC (Homo sapiens, HUVEC, 72 h, read-out: GI50 (μM) HUVEC, 72 h), the GI50 amounted to 4.7 ± 0.3 µM. Also, the mrna remaining at 1 µM in assay [1] (C3H 10T1/2, 24 h) was determined as 58.5 ± 6.4%. As for `CCC(C)n1ncn(-c2ccc(N3CCN(c4ccc(O)cc4)CC3)cc2)c1=O` (stereo not drawn) [Compound 45a], the GI50 in the assay on HUVEC (72 h, read-out: GI50 (μM) HUVEC) is over 100 µM. Also, in assay [1] (1 μM, 24 hr incubation, relative to recombinant Hh ligand control (100%)), the “% Gli expression (1 μM)” value is recorded as 45.7 ± 3.0%. As for `CS(=O)(=O)c1ccc(C(=O)Nc2ccc(Cl)c(-c3ccccn3)c2)c(Cl)c1` [GDC-0449, reference compound], the IC50 worked out at 0.082 ± 0.02 µM in assay [1] (C3H 10T1/2, down-regulation of endogenous Gli1 mRNA, read-out: Hh pathway inhibition C3H10T1/2) and 0.04 ± 0.01 µM in assay [2] (down-regulation of endogenous Gli1 mRNA, read-out: Hh pathway inhibition ASZ). For the compound `C[C@H](O)Cn1ncn(-c2ccc(N3CCN(c4ccc(OCC5COC(Cn6cncn6)(c6ccc(Cl)cc6Cl)O5)cc4)CC3)cc2)c1=O` (stereo partly drawn) [Itz-psz #1 (S−)], the values for the IC50 in assay [1] (setting [5]) and in assay [2] (read-out: IC50 (μM) Gli1-ASZs) were 0.45 ± 0.09 µM and 0.15 ± 0.01 µM, respectively. Consider `C[C@@H](O)Cn1ncn(-c2ccc(N3CCN(c4ccc(OCC5COC(Cn6cncn6)(c6ccc(Cl)cc6Cl)O5)cc4)CC3)cc2)c1=O` (stereo partly drawn) [Itz-psz #2 (R−)], for which the IC50 worked out at 0.18 ± 0.02 µM in assay [1] (setting [5]) and 0.1 ± 0.01 µM in assay [2] (read-out: IC50 (μM) Gli1-ASZs). As for `CC(=O)N1CCN(c2ccc(OCC3COC(Cn4ccnc4)(c4ccc(Cl)cc4Cl)O3)cc2)CC1` (stereo not drawn) [ketoconazole, reference compound], the “Hh inhibitory activity relative to ITZ” value in assay [1] (1 μM) is “significant reduction in Hh inhibitory activity”.

With `CC(C)N1CCN(c2ccc(OCC3COC(Cn4cncn4)(c4ccc(Cl)cc4Cl)O3)cc2)CC1` (stereo not drawn) [terconazole, reference compound], the “Hh inhibitory activity relative to ITZ” value in assay [1] (1 μM) is reported as “significant reduction in Hh inhibitory activity”.
